Results on 1 compound are retold here after paper PMC6738096 (British Journal of Cancer, 2019).

This experiment addresses hERG (Homo sapiens, UniProt Q12809). The experiment in a line: hERG channel functional assay. The settings on record: read-out: IC50, inhibition of the hERG channel, functional assay. The format is biochemical.

Sequence of hERG (Q12809 whole entry): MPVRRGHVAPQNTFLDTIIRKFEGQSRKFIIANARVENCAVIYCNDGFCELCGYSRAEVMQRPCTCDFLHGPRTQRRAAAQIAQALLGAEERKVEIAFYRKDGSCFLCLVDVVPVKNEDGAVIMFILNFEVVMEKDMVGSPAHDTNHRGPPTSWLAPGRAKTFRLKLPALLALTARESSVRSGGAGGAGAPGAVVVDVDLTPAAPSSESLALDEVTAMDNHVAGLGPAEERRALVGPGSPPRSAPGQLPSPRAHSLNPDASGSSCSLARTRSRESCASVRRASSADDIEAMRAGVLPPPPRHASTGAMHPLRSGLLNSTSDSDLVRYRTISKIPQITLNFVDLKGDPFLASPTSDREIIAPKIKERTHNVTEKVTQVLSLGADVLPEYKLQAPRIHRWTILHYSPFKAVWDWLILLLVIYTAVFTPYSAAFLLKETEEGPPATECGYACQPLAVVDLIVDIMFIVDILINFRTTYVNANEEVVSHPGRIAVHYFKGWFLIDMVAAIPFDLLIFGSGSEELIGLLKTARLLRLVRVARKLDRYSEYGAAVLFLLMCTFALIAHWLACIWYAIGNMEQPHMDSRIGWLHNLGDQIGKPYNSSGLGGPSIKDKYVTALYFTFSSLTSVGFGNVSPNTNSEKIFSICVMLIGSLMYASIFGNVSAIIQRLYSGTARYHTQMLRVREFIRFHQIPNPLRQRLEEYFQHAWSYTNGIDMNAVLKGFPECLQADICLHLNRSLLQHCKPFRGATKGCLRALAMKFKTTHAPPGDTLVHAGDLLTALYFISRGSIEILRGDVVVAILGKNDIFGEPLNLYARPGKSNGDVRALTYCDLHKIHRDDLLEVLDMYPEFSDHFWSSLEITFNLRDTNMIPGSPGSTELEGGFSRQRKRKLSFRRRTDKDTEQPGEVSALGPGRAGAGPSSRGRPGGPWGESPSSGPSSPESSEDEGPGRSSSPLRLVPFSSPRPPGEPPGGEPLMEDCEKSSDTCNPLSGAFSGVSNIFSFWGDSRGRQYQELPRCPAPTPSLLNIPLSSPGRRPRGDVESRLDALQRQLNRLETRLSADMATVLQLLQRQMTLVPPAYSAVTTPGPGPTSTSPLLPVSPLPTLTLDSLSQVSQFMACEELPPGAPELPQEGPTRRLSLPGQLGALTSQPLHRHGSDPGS

Consider `CC(C)NC(=O)[C@H]1CC[C@@H](n2c(NC(=O)c3ccc(F)cc3)nc3ccc(CN4CCC(C(C)(C)O)CC4)cc32)CC1` [TSR-011], for which the 50% inhibitory concentration (IC50) (as a rule, the midpoint of a concentration-inhibition curve) was found to be 172 nM.
